The supplement of paper PMC8967900

Legend:
Test in all cases: selective drug sensitivity score (sDSS, relative to normal bone marrow) (sDSS (score)); higher = more potent and effective on the cell line relative to normal bone marrow cells
Conditions in all cases: 72 h
KASUMI-2 = tested on: KASUMI-2
CCRF-HSB2 = tested on: CCRF-HSB2
COG-LL-319h = tested on: COG-LL-319h
TANOUE = tested on: TANOUE
MHH-CALL-4 = tested on: MHH-CALL-4
KARPAS-45 = tested on: KARPAS-45
697 = tested on: 697
COG-LL-317 = tested on: COG-LL-317
MOLT-4 = tested on: MOLT-4
JURKAT = tested on: JURKAT
COG-LL-402h = tested on: COG-LL-402h
MN-60 = tested on: MN-60
SUP-B15 = tested on: SUP-B15
NALM-16 = tested on: NALM-16
MHH-CALL-3 = tested on: MHH-CALL-3
380 = tested on: 380
DND-41 = tested on: DND-41
ALL-SIL = tested on: ALL-SIL
HPB-ALL = tested on: HPB-ALL
COG-LL-355h = tested on: COG-LL-355h
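Further: ALL cell lines in 384-well plates, five doses spanning 10,000-fold, each plate scaled between vehicle and 100 µmol/L benzalkonium chloride controls, sDSS an adapted area-under-curve metric.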

SMILES	selective drug sensitivity score (KASUMI-2)	selective drug sensitivity score (CCRF-HSB2)	selective drug sensitivity score (COG-LL-319h)	selective drug sensitivity score (TANOUE)	selective drug sensitivity score (MHH-CALL-4)	selective drug sensitivity score (KARPAS-45)	selective drug sensitivity score 697	selective drug sensitivity score (COG-LL-317)	selective drug sensitivity score (MOLT-4)	selective drug sensitivity score (JURKAT)	selective drug sensitivity score (COG-LL-402h)	selective drug sensitivity score (MN-60)	selective drug sensitivity score (SUP-B15)	selective drug sensitivity score (NALM-16)	selective drug sensitivity score (MHH-CALL-3)	selective drug sensitivity score 380	selective drug sensitivity score (DND-41)	selective drug sensitivity score (ALL-SIL)	selective drug sensitivity score (HPB-ALL)	selective drug sensitivity score (COG-LL-355h)
Nc1ccccc1NC(=O)c1ccc(CNC(=O)OCc2cccnc2)cc1 [Entinostat] (top concentration 10000 nM)	7.68	3.28	12.7	-8.52	8.88	9.48	8.28	2.98	1.48	2.68	4.98	1.68	7.08	0.28	11.4	13.1	1.28	12.1	4.28	1.98
Cc1[nH]nc(C(F)(F)F)c1Cc1sc2c(c1C(=O)N1C[C@](C)(O)CO1)c(=O)n(C)c(=O)n2C(C)C [AZD3965] (top concentration 1000 nM)	3.8	0	0	2.6	0	0	3.6	0.3	0	0	0	0.9	7.1	0	0	4.2	0	0	0.1	0
CN(C)C1CCN(C(=O)c2ccc(NC(=O)Nc3ccc(-c4nc(N5CCOCC5)nc(N5CCOCC5)n4)cc3)cc2)CC1 [Gedatolisib] (top concentration 1000 nM)	7.56	8.86	-0.04	-1.04	3.66	3.76	11.3	5.06	5.46	2.66	8.56	6.26	8.36	1.46	-1.64	14.8	4.46	2.66	-0.04	4.16
CC(C)(C)Cn1c(N)nc2ccc(-c3[nH]c(C(C)(C)C)nc3-c3ccc(F)cc3)nc21 [Ralimetinib] (top concentration 10000 nM)	1.56	1.26	4.06	-0.44	-0.84	5.36	5.66	0.96	8.36	1.76	2.26	-0.14	7.36	-0.84	-0.84	-0.84	5.36	3.36	3.66	7.86
CC(C)[C@@H](CS(=O)(=O)C(C)C)N1C(=O)[C@@](C)(CC(=O)O)C[C@H](c2cccc(Cl)c2)[C@H]1c1ccc(Cl)cc1 [AMG-232] (top concentration 10000 nM)	12.3	9.26	11.4	-10.5	10.9	-8.34	9.06	15.1	10.1	-8.34	9.26	3.16	16.5	-10.2	12.6	13	-8.84	-8.14	-9.34	8.76
C[C@@H](Nc1cc(F)cc(F)c1)c1cc(C(=O)N(C)C)cc2c(=O)cc(N3CCOCC3)oc12 [AZD-8186] (top concentration 1000 nM)	7.54	1.64	0.74	-0.26	4.34	2.14	3.64	-0.26	-0.06	-0.26	5.14	-0.26	-0.26	-0.06	3.84	2.84	-0.26	-0.26	1.94	5.04
CCNC(=O)C[C@@H]1N=C(c2ccc(Cl)cc2)c2cc(OC)ccc2-n2c(C)nnc21 [Molibresib] (top concentration 10000 nM)	-2.7	-0.5	6.9	-6.2	6.9	5.3	7.4	3.2	-4.4	-0.6	5.3	6.3	3.2	1.6	16.7	-5.5	-0.9	-3.3	0.8	1.7
Nc1cc(C(F)(F)F)c(-c2cc(N3CCOCC3)nc(N3CCOCC3)n2)cn1 [Buparlisib] (top concentration 10000 nM)	2.08	4.18	4.58	-1.22	2.78	5.28	7.38	1.08	4.38	8.18	5.58	2.68	4.38	3.98	-1.22	7.18	-0.32	8.28	6.38	5.68
C[C@@]1(C(=O)Nc2ccc(F)nc2)CCCN1c1nc(Nc2cc(C3CC3)n[nH]2)c2cccn2n1 (top concentration 10000 nM)	-6.52	12.1	8.78	-6.52	4.58	6.18	11.8	12.5	8.68	-2.62	8.18	-4.62	8.98	2.88	3.28	18.1	-5.02	10.5	8.28	12.1
Cc1c(-c2c(-c3ccc(F)o3)sc3ncnc(O[C@H](Cc4ccccc4OCc4ccnn4CC(F)(F)F)C(=O)O)c23)ccc(OCCN2CCN(C)CC2)c1Cl (top concentration 1000 nM)	-4.34	-5.14	15.8	-7.74	-4.64	-0.24	-0.84	-2.84	-2.84	-6.44	6.06	-7.74	6.36	-4.64	1.56	0.86	-7.74	-1.04	-2.44	4.66
Cn1cc(CNCC2CCN(c3ncc(C(=O)NO)cn3)CC2)c2ccccc21 [Quisinostat] (top concentration 1000 nM)	12.4	1.28	12.3	-7.62	5.98	8.18	8.68	7.18	2.98	1.78	17.6	-2.02	10.1	-1.32	17	6.68	2.98	5.68	6.88	6.38
Nc1cc(F)ccc1NC(=O)c1ccc(CNC(=O)/C=C/c2cccnc2)cc1 [Tucidinostat] (top concentration 10000 nM)	8.84	2.14	12	-8.66	9.94	8.74	6.34	2.74	-0.76	1.34	5.34	1.54	5.34	-0.36	11.4	12.5	1.04	10.4	3.44	0.64
O=C(O)c1ccc2c(c1)nc(Nc1cccc(Cl)c1)c1ccncc12 [Silmitasertib] (top concentration 10000 nM)	-1.4	4.4	15.8	-0.3	2.2	4.1	3.5	4	0.6	3.2	0.2	3.7	3	-1.4	-1.4	7.7	3.6	6.2	1.9	6.3
COc1c(C)cnc(Cn2cnc3c(Cl)nc(N)nc32)c1C [BIIB021] (top concentration 10000 nM)	3.88	10.8	1.78	-8.12	1.28	8.88	4.28	10.2	11.8	0.48	5.78	-2.62	4.48	2.38	9.58	7.68	8.58	5.88	3.58	0.38
CC(C)[C@H]1C(=O)N[C@@H](CCCNC(=N)N)C(=O)NCC(=O)N[C@@H](CC(=O)O)C(=O)N[C@H](Cc2ccccc2)C(=O)N1C [Cilengitide] (top concentration 10000 nM)	0	0	0	0	5.5	0	0	0	0	0	0	0	0	0	0	11.3	0	0	0	0
Nc1ccccc1NC(=O)c1ccc(CNc2nccc(-c3cccnc3)n2)cc1 [Mocetinostat] (top concentration 10000 nM)	6.74	3.94	14.7	-8.46	8.04	8.84	8.84	5.64	5.24	6.74	8.84	1.34	9.64	-0.46	12.4	15.5	7.44	9.14	8.64	4.24
NC(=O)N1CCC(CC(=O)N2CCC([C@H]3c4ncc(Br)cc4CCc4cc(Cl)cc(Br)c43)CC2)CC1 [Lonafarnib] (top concentration 100000 nM)	6.14	9.14	7.04	-3.96	7.44	24.1	7.54	14	10.5	5.74	3.64	2.24	11.9	4.04	4.54	-1.06	4.54	9.34	9.84	9.34
CCN(CCO)CCCOc1ccc2c(Nc3cc(CC(=O)Nc4cccc(F)c4)[nH]n3)ncnc2c1 [AZD1152-HQPA] (top concentration 1000 nM)	6.44	23.5	24.2	-3.06	2.04	24.7	16.5	19.8	13.5	-0.26	18.4	-2.46	22.2	0.34	5.24	20.8	-1.46	23.4	4.34	8.84
